Legend:
[1] = tested on: muscle tissue from arthritic mice; assay: Microarray on muscle tissue mRNA from CIA mice; format: in vivo, mouse; details: day 21, 2.5 hours after final oral dose, 1.5 mg/kg prednisolone or 0.3 mg/kg Org 214007-0, prednisolone = 100%
Excerpt: Besides these groups of mice, one group of healthy mice (sham-immunized and vehicle-treated) was included. Collected tissue was used to isolate mRNA for microarray analysis. […] We also calculated a mean fold change for all induced and repressed genes by both compounds derived from this microarray. […] Two and a half hours after the final treatment animals were sacrificed and samples were collected from the thigh muscle (musculus tensor fasciae latae and musculus rectus femoris). Samples were stored immediately at −80°C and send to Covance (Princeton, New Jersey) for RNA extraction and subsequent analysis of gene expression on the Mouse Genome 430A 2.0 array. For statistical analysis, the. CEL files obtained after hybridization were analyzed with the R (www.r-project.org) and the BioConductor software package (www.bioconductor.org) as described previously. Normalization was done using gcrma. Building of the experimental design and calculation of the ratios was done with the limma package. Differentially expressed probe sets were selected on basis of the fold change and the adjusted p-value (Benjamini-Hochberg correction). Multivariate data analysis and clustering was done with standard methods in the R software package (www.r-project.org). A therapeutic index for Org 214007-0 was calculated in the same way as was described for the THP-1 microarray data.

[2] = tested on: anti-CD3-induced IL-2 release; assay: anti-CD3-induced IL-2 mouse model; format: in vivo; details: oral; for ED50: Mus musculus, 1 hour before anti-CD3 i.p., Balb/c mice, read-out: ED50, reduction of anti-CD3-induced IL-2 serum levels; for efficacy, inhibition of anti-CD3-induced IL-2: relative to 10 mg/kg A420983 (100%)
Experimental: For both the LPS-induced TNFα as well as the anti-CD3 induced IL-2 model, female Balb/c mice of 8–12 week old were used. Mice were treated orally with 0.2 ml compound or vehicle (water/mannitol (5%) with 5% DMSO/5% chremophore for the LPS model or with 0.5% gelatine for the anti-CD3 model). One hour after oral treatment animals were challenged i.p. with 0.2 ml of either 20 μg/mouse LPS (Sigma, E. coli serotype 055:B5) or 5 µg/mouse hamster anti-CD3 monoclonal (BD Biosciences Pharmingen, art. nr. 553057, clone 145-2C11). Ninety minutes after LPS injection or 3 hours after anti-CD3 challenge, blood samples were collected and serum levels of TNFα or IL-2 were determined via specific ELISAs (BD Biosciences Pharmingen, San Diego, CA, USA). In the experiment that included treatment with RU486 to block GR, mice were dosed subcutaneously with 50 mg/kg RU486 30 minutes before the oral compound dosing. ED50 and % efficacy (maximal percentage inhibition of TNFα or IL-2 release) are determined using a 3 parameter sigmoidal curve calculation. Statistical analysis of the results was performed using an one-way ANOVA (log) test.

[3] = Mouse fasting blood glucose; format: in vivo; details: oral daily 28 days; prednisolone 0.5 or 10 mg/kg/day, Org 214007-0 0.17 or 1.5 mg/kg/day; 9 hours fasting
Experimental: Eighteen hours after the last oral treatment and 9 hours after start of starvation, blood samples were taken from the tail vein and directly used for glucose measurements using “One touch Ultra” glucose meter from Lifescan EuroFlash (Lifescan Benelux Beerse, Belgium). The mouse MIDA study was performed as described previously by van Dijk et al., [52]. […] On the third day, mice were cannulated in the right jugular vein. After 7 days of treatment, mice were placed in small Plexiglas cages, which allowed collection of blood samples frequently in freely moving mice. […] During the experiment blood glucose was measured and blood spots for GCMS measurements were collected from tail tips just before the start of the infusion and at hourly intervals. […] Glucose and paracetamol-glucuronic acid (Par-GLcUa) were extracted from blood spot and urine filter papers, respectively, derivatised, and measured by GC-MS, essentially as described previously, [52]. […] From isotope dilution and infusion rates, the flux rates of the following metabolic pathways could be calculated: 1) de novo synthesis of G6P, 2) glucokinase, 3) glucose-6-phosphatase, 4) glycogenolysis, and 5) glycogen synthesis. […]

C[C@]12C=CC(=O)C=C1CC[C@@H]1[C@@H]2[C@@H](O)C[C@@]2(C)[C@H]1CC[C@]2(O)C(=O)CO [prednisolone, reference compound]
Max. eff., mean induction of genes, microarray [1]: 100% | Max. eff., mean repression of genes, microarray [1]: 100% | ED50 [2]: ~10 mg/kg | efficacy, inhibition of anti-CD3-induced IL-2 [2]: 75% | fasting blood glucose levels vs vehicle [3]: significantly elevated

Cc1nnsc1C(=O)N[C@H]1CCN2c3ccc(C#N)cc3[C@@H](C)c3ccccc3[C@@H]2C1 [Org 214007-0]
Max. eff., mean induction of genes, microarray [1]: 25.7% | Max. eff., mean repression of genes, microarray [1]: 87.7% | ED50 [2]: ~0.3 mg/kg | efficacy, inhibition of anti-CD3-induced IL-2 [2]: 75% | fasting blood glucose levels vs vehicle [3]: not affected
